These results are taken from patent US20150284331A1 (priority 2012, published 2015).

In one assay the target is T1, acetylcholinesterase (Rattus norvegicus, UniProt P37136).
T1 construct: Acetylcholinesterase: rat cortex; from tissue; host or cells: rat cortex
T1 sequence (P37136 32-614): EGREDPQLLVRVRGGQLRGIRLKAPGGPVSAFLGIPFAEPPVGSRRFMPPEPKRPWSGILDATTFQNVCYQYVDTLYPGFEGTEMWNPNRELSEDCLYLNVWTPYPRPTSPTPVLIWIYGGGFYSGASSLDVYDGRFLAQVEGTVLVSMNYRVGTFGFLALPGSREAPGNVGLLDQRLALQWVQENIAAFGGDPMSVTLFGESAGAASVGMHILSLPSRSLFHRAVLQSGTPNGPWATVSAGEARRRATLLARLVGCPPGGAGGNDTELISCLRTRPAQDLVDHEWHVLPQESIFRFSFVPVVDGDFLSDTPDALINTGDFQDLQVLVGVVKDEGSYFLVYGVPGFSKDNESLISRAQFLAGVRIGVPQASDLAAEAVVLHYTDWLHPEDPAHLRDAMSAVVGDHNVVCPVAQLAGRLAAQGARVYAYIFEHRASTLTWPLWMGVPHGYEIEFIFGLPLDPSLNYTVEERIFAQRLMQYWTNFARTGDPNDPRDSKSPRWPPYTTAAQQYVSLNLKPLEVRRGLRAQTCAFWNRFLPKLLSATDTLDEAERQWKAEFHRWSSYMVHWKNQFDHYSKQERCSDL
Description: biochemical. The format is biochemical. The note with it: rat cortex enzyme; for acetylcholinesterase inhibitory activity inhibition ratio (%): final concentration 4×10−5 mol/L; for IC50: read-out: acetylcholinesterase inhibitory activity IC50 (nmol). The procedure: (§1) Sample processing: All samples were formulated as 10-2 mol/L solution by using 100% DMSO. 10-2 mol/L solution was used in microdetermination. 1 μL was taken to use in single tube experiment.
(§2) Solvent control: 0.4% DMSO was used in microdetermination. The inhibition ratio of the sample was obtained wherein the effect of solvent was deducted.
Acetylcholinesterase: rat cortex

A further assay has as its target T2, butyrylcholinesterase (Rattus norvegicus, UniProt Q9JKC1).
T2 construct: Butyrylcholinesterase: rat serum; from tissue; host or cells: rat serum
Description: inhibition of butyrylcholinesterase (rat serum). Type of assay: biochemical. The following applies: rat serum enzyme; final concentration 4×10−5 mol/L. Here is the method:
as §1, §2
Butyrylcholinesterase: rat serum

T2 sequence (Q9JKC1 24-597): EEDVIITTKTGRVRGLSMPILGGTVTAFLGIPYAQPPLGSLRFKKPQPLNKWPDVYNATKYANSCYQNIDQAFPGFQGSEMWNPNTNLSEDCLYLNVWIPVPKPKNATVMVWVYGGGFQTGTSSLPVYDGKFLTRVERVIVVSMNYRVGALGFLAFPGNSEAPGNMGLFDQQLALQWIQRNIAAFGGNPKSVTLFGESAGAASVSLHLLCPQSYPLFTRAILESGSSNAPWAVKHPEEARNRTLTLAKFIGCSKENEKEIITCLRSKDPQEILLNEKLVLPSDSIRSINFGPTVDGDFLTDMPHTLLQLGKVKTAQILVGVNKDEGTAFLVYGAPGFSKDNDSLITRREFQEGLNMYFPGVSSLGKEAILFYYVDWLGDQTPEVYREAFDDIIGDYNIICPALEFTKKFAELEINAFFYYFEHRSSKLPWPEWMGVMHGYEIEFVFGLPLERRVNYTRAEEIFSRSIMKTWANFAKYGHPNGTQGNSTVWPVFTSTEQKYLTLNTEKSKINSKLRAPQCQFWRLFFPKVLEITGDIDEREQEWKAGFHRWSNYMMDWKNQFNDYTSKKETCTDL

A word on the IC50: it is the concentration at which inhibition is half-maximal. Regarding `COc1cc2c(cc1OC)C(=O)C(CC1(F)CCN(Cc3ccc(Br)cc3F)CC1)C2` (stereo not shown) [DC15, 2-((1-(4-bromo-2-fluorobenzyl)-4-fluoropiperidin-4-yl)methyl)-5,6-dimethoxy-2,3-dihydro-1H-inden-1-one], on acetylcholinesterase, the “acetylcholinesterase inhibitory activity inhibition ratio (%)” value was 72.65% and the half-inhibitory concentration (IC50) was determined as 7.04 µM. Also, the “butyrylcholinesterase inhibitory activity inhibition ratio (%)” value at butyrylcholinesterase is 0.31%.
With `COc1cc2c(cc1OC)C(=O)C(CC1(F)CCN(Cc3ccc(C(F)(F)F)cc3)CC1)C2` (stereo not shown) [DC16, 2-((4-fluoro-1-(4-(trifluoromethyl)benzyl)piperidin-4-yl)methyl)-5,6-dimethoxy-2,3-dihydro-1H-inden-1-one], the “acetylcholinesterase inhibitory activity inhibition ratio (%)” value at acetylcholinesterase amounted to 75.25%. Besides, the “butyrylcholinesterase inhibitory activity inhibition ratio (%)” value at butyrylcholinesterase was found to be 0.00%.
For `COc1cc2c(cc1OC)C(=O)C(CC1(F)CCN(Cc3cc(F)c(F)cc3F)CC1)C2` (stereo not shown) [DC17, 2-((4-fluoro-1-(2,4,5-trifluorobenzyl)piperidin-4-yl)methyl)-5,6-dimethoxy-2,3-dihydro-1H-inden-1-one], at acetylcholinesterase, the “acetylcholinesterase inhibitory activity inhibition ratio (%)” value turned out to be 81.84% and the IC50 worked out at 0.002 µM. In addition, on butyrylcholinesterase, the “butyrylcholinesterase inhibitory activity inhibition ratio (%)” value worked out at 49.79%.
Take `COc1cc2c(cc1OC)C(=O)C(CC1(F)CCN(Cc3ccccc3C(F)(F)F)CC1)C2` (stereo not shown) [DC18, 2-((4-fluoro-1-(2-(trifluoromethyl)benzyl)piperidin-4-yl)methyl)-5,6-dimethoxy-2,3-dihydro-1H-inden-1-one]: the “acetylcholinesterase inhibitory activity inhibition ratio (%)” value on acetylcholinesterase worked out at 93.80%. Also, at butyrylcholinesterase, the “butyrylcholinesterase inhibitory activity inhibition ratio (%)” value came to 14.99%.
In the same order, the values of `COc1cc2c(cc1OC)C(=O)C(CC1(F)CCN(Cc3cccc(F)c3)CC1)C2` (stereo not shown) [DC21, 2-((4-fluoro-1-(3-fluorobenzyl)piperidin-4-yl)methyl)-5,6-dimethoxy-2,3-dihydro-1H-inden-1-one] are 82.24% and 75.02%.
On to `COc1cc2c(cc1OC)C(=O)C(CC1(F)CCN(Cc3cc(C(F)(F)F)cc(C(F)(F)F)c3)CC1)C2` (stereo not shown) [DC22, 2-((1-(3,5-bis(trifluoromethyl)benzyl)-4-fluoropiperidin-4-yl)methyl)-5,6-dimethoxy-2,3-dihydro-1H-inden-1-one], for which, on acetylcholinesterase, the “acetylcholinesterase inhibitory activity inhibition ratio (%)” value is on record as 58.49%. The “butyrylcholinesterase inhibitory activity inhibition ratio (%)” value at butyrylcholinesterase is listed as 4.36%.
For `COc1cc2c(cc1OC)C(=O)C(CC1(F)CCN(C(=O)c3ccccc3)CC1)C2` (stereo not shown) [DC23, 2-((1-benzoyl-4-fluoropiperidin-4-yl)methyl)-5,6-dimethoxy-2,3-dihydro-1H-inden-1-one], in that order: 57.09% and 0.00%.
Turning to `COc1cc2c(cc1OC)C(=O)C(CC1(F)CCN(Cc3cc(F)cc(F)c3)CC1)C2` (stereo not shown) [DC27, 2-((1-(3,5-difluorobenzyl)-4-fluoropiperidin-4-yl)methyl)-5,6-dimethoxy-2,3-dihydro-1H-inden-1-one], the “acetylcholinesterase inhibitory activity inhibition ratio (%)” value on acetylcholinesterase came to 97.34%. Besides, the “butyrylcholinesterase inhibitory activity inhibition ratio (%)” value on butyrylcholinesterase is given as 18.07%.
As for `COc1cc2c(cc1OC)C(=O)C(CC1(F)CCN(Cc3cccc(C)c3)CC1)C2` (stereo not shown) [DC29, 2-((4-fluoro-1-(3-methylbenzyl)piperidin-4-yl)methyl)-5,6-dimethoxy-2,3-dihydro-1H-inden-1-one], the “acetylcholinesterase inhibitory activity inhibition ratio (%)” value on acetylcholinesterase came out at 97.78%. Further, at butyrylcholinesterase, the “butyrylcholinesterase inhibitory activity inhibition ratio (%)” value came out at 64.92%.
For `COc1cc2c(cc1OC)C(=O)C(CC1(F)CCN(Cc3cccc(C(F)(F)F)c3)CC1)C2` (stereo not shown) [DC30, 2-((4-fluoro-1-(3-(trifluoromethyl)benzyl)piperidin-4-yl)methyl)-5,6-dimethoxy-2,3-dihydro-1H-inden-1-one], in that order: 97.49% and 5.18%.
Turning to `COc1cc2c(cc1OC)C(=O)C(CC1(F)CCN(CC3CCC3)CC1)C2` (stereo not shown) [DC31, 2-((1-(cyclobutylmethyl)-4-fluoropiperidin-4-yl)methyl)-5,6-dimethoxy-2,3-dihydro-1H-inden-1-one], the “acetylcholinesterase inhibitory activity inhibition ratio (%)” value at acetylcholinesterase turned out to be 85.82%. Moreover, at butyrylcholinesterase, the “butyrylcholinesterase inhibitory activity inhibition ratio (%)” value is listed as 35.06%.
Take `COc1cc2c(cc1OC)C(=O)C(CC1(F)CCN(CC3CCCC3)CC1)C2` (stereo not shown) [DC32, 2-((1-(cyclopentylmethyl)-4-fluoropiperidin-4-yl)methyl)-5,6-dimethoxy-2,3-dihydro-1H-inden-1-one]: the “acetylcholinesterase inhibitory activity inhibition ratio (%)” value on acetylcholinesterase stood at 90.10%. In addition, at butyrylcholinesterase, the “butyrylcholinesterase inhibitory activity inhibition ratio (%)” value was determined as 46.68%.
As for `COc1cc2c(cc1OC)C(=O)C(CC1(F)CCN(CC3CCCCC3)CC1)C2` (stereo not shown) [DC33, 2-((1-(cyclohexylmethyl)-4-fluoropiperidin-4-yl)methyl)-5,6-dimethoxy-2,3-dihydro-1H-inden-1-one], on acetylcholinesterase, the “acetylcholinesterase inhibitory activity inhibition ratio (%)” value worked out at 90.10%. The “butyrylcholinesterase inhibitory activity inhibition ratio (%)” value at butyrylcholinesterase was found to be 0.36%.
`COc1cc2c(cc1OC)C(=O)C(CC1(F)CCN(CC3CCCCCC3)CC1)C2` (stereo not shown) [DC34, 2-((1-(cycloheptylmethyl)-4-fluoropiperidin-4-yl)methyl)-5,6-dimethoxy-2,3-dihydro-1H-inden-1-one]: the “acetylcholinesterase inhibitory activity inhibition ratio (%)” value on acetylcholinesterase was found to be 95.57%. The “butyrylcholinesterase inhibitory activity inhibition ratio (%)” value on butyrylcholinesterase stood at 68.48%.
In the case of `COc1cc2c(cc1OC)C(=O)C(CC1(F)CCN(Cc3cc(F)cc(F)c3F)CC1)C2` (stereo not shown) [DC35, 2-((4-fluoro-1-(2,3,5-trifluorobenzyl)piperidin-4-yl)methyl)-5,6-dimethoxy-2,3-dihydro-1H-inden-1-one], on acetylcholinesterase, the “acetylcholinesterase inhibitory activity inhibition ratio (%)” value was determined as 94.39%. Also, the “butyrylcholinesterase inhibitory activity inhibition ratio (%)” value on butyrylcholinesterase came out at 10.08%.
On to `COc1cc2c(cc1OC)C(=O)C(CC1(F)CCN(Cc3ccc(-c4ccccc4)cc3)CC1)C2` (stereo not shown) [DC36, 2-((1-([1,1′-biphenyl]-4-ylmethyl)-4-fluoropiperidin-4-yl)methyl)-5,6-dimethoxy-2,3-dihydro-1H-inden-1-one], for which, on acetylcholinesterase, the “acetylcholinesterase inhibitory activity inhibition ratio (%)” value turned out to be 90.25%. Also, the “butyrylcholinesterase inhibitory activity inhibition ratio (%)” value on butyrylcholinesterase is 5.18%.
For `COc1cc2c(cc1OC)C(=O)C(CC1(F)CCN(Cc3ccccc3C#N)CC1)C2.Cl` (stereo not shown) [DC37, 2-((4-((5,6-dimethoxy-1-oxo-2,3-dihydro-1H-inden-2-yl)methyl)-4-fluoropiperidin-1-yl)methyl)benzonitrile hydrochloride], in that order: 81.98% and 20.80%.
Take `COc1cc2c(cc1OC)C(=O)C(CC1(F)CCN(Cc3cccc(F)c3)CC1)C2.Cl` (stereo not shown) [DC38, 2-((4-fluoro-1-(3-fluorobenzyl)piperidin-4-yl)methyl)-5,6-dimethoxy-2,3-dihydro-1H-inden-1-one hydrochloride]: on acetylcholinesterase, the “acetylcholinesterase inhibitory activity inhibition ratio (%)” value is 96.90%. Besides, the “butyrylcholinesterase inhibitory activity inhibition ratio (%)” value at butyrylcholinesterase is given as 72.57%.
Regarding `COc1cc2c(cc1OC)C(=O)C(CC1(F)CC3CCC(C1)N3Cc1cc(C)cc(C)c1)C2` (stereo not shown) [DC44, 2-((8-(3,5-dimethylbenzyl)-3-fluoro-8-azabicyclo[3.2.1]octan-3-yl)methyl)-5,6-dimethoxy-2,3-dihydro-1H-inden-1-one], the “acetylcholinesterase inhibitory activity inhibition ratio (%)” value at acetylcholinesterase amounted to 95.27%. In addition, the “butyrylcholinesterase inhibitory activity inhibition ratio (%)” value on butyrylcholinesterase is on record as 34.15%.
